Data from US4956463A, “Pyrimidone compound and pharmaceutically acceptable salts thereof” (Ikeda Mohando Company, Ltd., priority 1987, dated 1990).
Where two headings read alike, the source gives them in different places.

Assays:
[1] = tested on: Gastric Acid Secretion Accelerated by Histamine in Pylorus-ligated Rats; assay: Inhibitory Effect on Gastric Acid Secretion by Histamine in Pylorus-ligated Rats; format: in vivo, male Wister rat; settings: dose 2 mg/kg s.c.; histamine 3 mg/kg s.c. 30 min later; average of 5 measurements; ** P < 0.01 vs control group (all values marked **)
Experimental: A male Wister rat having a body weight of about 160 g and which had not fed for 24 hours was anesthetized by an intraperitonea dose of 1.2 g/kg of urethane. After ligating of pylorus and esophagus, gaster anterior was incised and fitted with a double polyethylene wall cannula. The wall of the stomach was rinsed with saline (5 ml each) at 30 minutes intervals, and the amount of gastric acid present in the rinsing solution were determined by titration technique.
The basal amount of secreted gastric acid was initially measured three times, then 2 mg/kg of each of compounds of the invention was administered subcutaneously and 3 mg/kg of histamine was subcutaneously administered after the lapse of an additional 30 minutes.
The quantity of gastric acid secreted after the operation was measured continuously for 3 hours. Within that measurement interval, three time points at which the increase in acid secretion reached a maximum level were selected, and the average quantity of gastric acid secreted at those time points was taken as the increase in acid secretion, which was compared with the increase in acid secretion of the control group to calculate the percent inhibition for secretion of gastric acid. [formula]

Ethanol-Induced Ulcer = assay: Inhibitory Effect on Ethanol-Induced Ulcer; format: in vivo, male Wister rats; settings: for inhibition in vivo at 30 mg/kg: Rattus norvegicus, po, 1 h, read-out: I.R. of Ethanol-Induced Ulcer
Experimental: (B) Inhibitory Effect of the Compounds of the Present Invention on Ethanol-Induced Ulcer
This test was performed in the manner similar to the method of Robert A. (Gastroenterology, 1975, Vol. 69, pp. 1045-1047). 30 mg/kg of the compound of this invention was orally administered to male Wister rats having a body weight of about 160 g after 24 hours fasting and after additional 30 minutes, 1 ml/animal of 100% ethanol was orally administered One hour after, the stomach was dissected out and was fixed with formalin, Then, the length of the hemorrhagic ulcers generated at the front portion of the stomach was measured by means of a microscope and these were defined as the coefficient of ulcer (U.C.). [formula]
The results obtained are listed in Table II in which the values found are expressed in the average of 5 measurements.

[2] = 30 mg/kg p.o., 100% ethanol 1 ml/animal p.o. 30 min later, average of 5 measurements, ** P < 0.01 vs control group (Ex. 18 and Cimetidine unmarked)

SMILES	Gastric Acid Secretion in Rats, Rate of inhibition [1]	inhibition in vivo at 30 mg/kg (Ethanol-Induced Ulcer)	inhibitory effect for damages with ethanol (Ethanol-Induced Ulcer; in words, as shown in Table II)	inhibition in vivo at 30 mg/kg (Ethanol-Induced Ulcer; [2])
CN/C(=N/CCSCc1nc[nH]c1C)NC#N [Cimetidine, reference compound]	70%	-22.4%	not observed	
Cc1[nH]c(NC/C=C\COc2cc(CN3CCCCC3)ccn2)nc(=O)c1C [Ex. 1, 5,6-Dimethyl-2-[4-<4-(1-piperidinomethyl)-pyridyl-2-oxy>-cis-2-butenylamino]-4-(1H)-pyrimidone]	59%			65%
Cc1[nH]c(NC/C=C\COc2cccc(CN3CCCCC3)c2)nc(=O)c1C [Ex. 3, 5,6-Dimethyl-2-[4-<3-(1-piperidinomethyl)-phenoxy>-cis-2-butenylamino]-4-(1H)-pyrimidone]	70%			80%
CCCCCCCc1c(C)[nH]c(NC/C=C\COc2cccc(CN3CCCCC3)c2)nc1=O [Ex. 7]				61%
CCCCCCCCCCCCc1c(C)[nH]c(NC/C=C\COc2cccc(CN3CCCCC3)c2)nc1=O [Ex. 10, 5-Dodecyl-6-methyl-2-[4-<3-(1-piperidinomethyl)-phenoxy>-cis-2-butenylamino]-4-(1H)-pyrimidone]	36%			73%
Cc1[nH]c(NC/C=C\COc2cc(CN3CCCCC3)ccn2)nc(=O)c1CCc1ccccc1 [Ex. 11, 5-Phenethyl-6-methyl-2-[4-<4-(1-piperidinomethyl)-pyridyl-2-oxy>-cis-2-butenylamino]-4-(1H)-pyrimidone]	47%			79%
Cc1[nH]c(NC/C=C\COc2cc(CN3CCCCC3)ccn2)nc(=O)c1Cc1ccccc1 [Ex. 13]				56%
Cc1[nH]c(NC/C=C\COc2cccc(CN3CCCCC3)c2)nc(=O)c1Cc1ccccc1 [Ex. 14, 5-Benzyl-6-methyl-2-[4-<3-(I-piperidinomethyl)-phenoxy>-cis-2-butenylamino]-4-(1H)-pyrimidone]				87%
Cc1[nH]c(NC/C=C\COc2cc(CN3CCCCC3)ccn2)nc(=O)c1Cc1ccc2c(c1)OCO2 [Ex. 16, 5-(3,4-methylenedioxy)-benzyl-6-methyl-2-[4-<4-(1-piperidinomethyl)-pyridyl-2-oxy>-cis-2-butenylamino]-4-(1H)-pyrimidone]				58%
COc1ccc(Cc2c(C)[nH]c(NC/C=C\COc3cccc(CN4CCCCC4)c3)nc2=O)cc1 [Ex. 17, 5-(p-methoxybenzyl)-6-methyl-2-[4-<3-(1-piperidino-methyl)-phenoxy>-cis-2-butenylamino]-4-(1H)-pyrimidone]				78%
CCCc1[nH]c(NC/C=C\COc2cccc(CN3CCCCC3)c2)nc(=O)c1Cc1ccc2c(c1)OCO2 [Ex. 18]				45%
